Data taken from PMC6112376, “Comprehensive Analyses and Prioritization of Tox21 10K Chemicals Affecting Mitochondrial Function by in-Depth Mechanistic Studies” (Environmental Health Perspectives, 2018).
Like-named read-outs stand apart in the source and are kept apart here.

Experiments:
hNSC = experiment: MMP assay in human neural stem cells (hNSC); format: cell-based; details: Homo sapiens, Neural stem cell, 1 h, read-out: hNSC IC50 (MMP)
HepG2 cells [1] = experiment: ROS-Glo hydrogen peroxide (ROS) assay; format: cell-based, human; details: Homo sapiens, HepG2, 2 h, read-out: ROS (HepG2) EC50
HepG2 cells [2] = experiment: Intracellular ATP content (cell viability) assay; format: cell-based, human; details: Homo sapiens, HepG2, 40 h
[3] = system: p53 (p53-bla HCT-116 cells); experiment: p53 β-lactamase reporter gene assay; format: cell-based, human; details: Homo sapiens; 16 h incubation; mean±SD of three experiments
[4] = system: Nrf2/ARE (ARE-bla HepG2 cells); experiment: ARE β-lactamase reporter gene assay; format: cell-based, human; details: Homo sapiens, HepG2; 16 h incubation; mean±SD of three experiments; read-out: ARE (HepG2) EC50
[5] = system: isolated rat liver mitochondria; experiment: Oxygen consumption, Clark-type oxygen electrode; format: biochemical
[6] = system: HeLa cells expressing YFP-Parkin; experiment: Parkin translocation assay; format: cell-based, human
rat primary hepatocytes [7] = system: rat primary hepatocytes
HepG2 cells [8] = details: cited from earlier work
HepG2 cells [9] = experiment: cells; details: Homo sapiens
[10] = system: Caenorhabditis elegans strain PE255; experiment: In vivo C. elegans ATP status assay; details: for minimal effective concentration: Caenorhabditis elegans, read-out: LEC LUM: lowest effect concentration for luminescence, a measure of nematode ATP content
rat primary hepatocytes [11] = experiment: MMP assay in rat primary hepatocytes; details: Rattus norvegicus, Hepatocyte, 1 h
[12] = system: Caenorhabditis elegans (Bristol N2); experiment: C. elegans larval development and growth assay; details: for minimal effective concentration: Caenorhabditis elegans, read-out: LEC EXT: lowest effect concentration for extinction, a measure of nematode size
[13] = read-out: ATP (HepG2, galactose) IC50
[14] = read-out: ATP (HepG2, glucose) IC50
[15] = HepG2, 1 h, read-out: HepG2 IC50 Galactose (MMP)
[16] = HepG2, 1 h, read-out: HepG2 IC50 Glucose (MMP)
[17] = read-out: Rat hepatocytes IC50 (MMP)

O=C(Nc1ccc(Cl)cc1)Nc1ccc(Cl)c(Cl)c1 [Triclocarban]
IC50 (hNSC): 0.43 µM
EC50 (HepG2 cells [1]): 31.8 µM
IC50 (HepG2 cells [2]; [13]): 15.8 µM
IC50 (HepG2 cells [2]; [14]): 19.1 µM
EC50 [3]: 5.33 ± 2.02 µM
EC50 [4]: 6.68 µM
Potential Mechanism [5]: Uncoupler
effect on mitochondrial respiration (in words) [5]: effects similar to those of FCCP
I-ADP, % of control (O2 consumption rate) ([5]; 0.032 µM): 107 (58.8) % of control
I-sub, % of control (O2 consumption rate) ([5]; 0.032 µM): 115 (15.1) % of control
II-ADP, % of control (O2 consumption rate) ([5]; 0.032 µM): 93 (82.1) % of control
II-sub, % of control (O2 consumption rate) ([5]; 0.032 µM): 93 (22.8) % of control
I-ADP, % of control (O2 consumption rate) ([5]; 0.16 µM): 96 (52.6) % of control
I-sub, % of control (O2 consumption rate) ([5]; 0.16 µM): 118 (15.5) % of control
II-ADP, % of control (O2 consumption rate) ([5]; 0.16 µM): 104 (91.7) % of control
II-sub, % of control (O2 consumption rate) ([5]; 0.16 µM): 114 (28.1) % of control
I-ADP, % of control (O2 consumption rate) ([5]; 0.8 µM): 103 (56.5) % of control
I-sub, % of control (O2 consumption rate) ([5]; 0.8 µM): 153 (20.1) % of control
II-ADP, % of control (O2 consumption rate) ([5]; 0.8 µM): 99 (87.1) % of control
II-sub, % of control (O2 consumption rate) ([5]; 0.8 µM): 128 (31.4) % of control
I-ADP, % of control (O2 consumption rate) ([5]; 20 µM): 143 (78.2) % of control
I-sub, % of control (O2 consumption rate) ([5]; 20 µM): 631 (82.6) % of control
II-ADP, % of control (O2 consumption rate) ([5]; 20 µM): 95 (84.1) % of control
II-sub, % of control (O2 consumption rate) ([5]; 20 µM): 290 (71.4) % of control
Parkin recruitment [6]: Active
MMP assays efficacy (%) Rat Hepatocytes (rat primary hepatocytes [7]): -113±53%
Rat hepatocytes (efficacy) (MMP) (rat primary hepatocytes [7]): 1.77±0.60 ( −73.7±3.11 ) %
MMP assays efficacy (%) qHTS-HepG2 (HepG2 cells [8]): -119±8%
IC50 (HepG2 cells [8]; read-out: MMP assays IC50 (µM), qHTS-HepG2): 0.14 ± 0.05 µM
IC50 (HepG2 cells [9]; [15]): 1.36 µM
IC50 (HepG2 cells [9]; [16]): 0.93 µM
IC50 (HepG2 cells [9]; HepG2, read-out: IC50 in HepG2 cells (MMP, tier-one retest)): 0.17 µM
Emax (HepG2 cells [9]; HepG2, read-out: MMP assays efficacy (%) HepG2): 102%
LUM: mean difference in luminescence (ATP content) relative to plate controls ([10]; 0.05 µM): -0.00831
LUM: mean difference in luminescence (ATP content) relative to plate controls ([10]; 0.1 µM): 0.1123
LUM: mean difference in luminescence (ATP content) relative to plate controls ([10]; 0.5 µM): 0.4779
LUM: mean difference in luminescence (ATP content) relative to plate controls ([10]; 1 µM): 2.3316
LUM: mean difference in luminescence (ATP content) relative to plate controls ([10]; 5 µM): 2.049
LUM: mean difference in luminescence (ATP content) relative to plate controls ([10]; 10 µM): 3.074
LUM: mean difference in luminescence (ATP content) relative to plate controls ([10]; 25 µM): 3.397
LUM: mean difference in luminescence (ATP content) relative to plate controls ([10]; 50 µM): 3.34
LUM: mean difference in luminescence (ATP content) relative to plate controls ([10]; 75 µM): 3.2375
LUM: mean difference in luminescence (ATP content) relative to plate controls ([10]; 100 µM): 2.494
effect on ATP content (in words) ([10]; 0.5–100μM): inhibited
minimal effective concentration [10]: 0.5 µM
IC50 (rat primary hepatocytes [11]; read-out: IC50 in rat primary hepatocytes (MMP, tier-one retest)): 0.17 µM
IC50 (rat primary hepatocytes [11]; [17]): 1.77 µM
EXT: mean difference in nematode size relative to plate controls ([12]; 0.05 µM): 0.05115
EXT: mean difference in nematode size relative to plate controls ([12]; 0.1 µM): -0.1287
EXT: mean difference in nematode size relative to plate controls ([12]; 0.5 µM): 0.279
larval growth effect at 0.5μM ([12]; 0.5 µM): severe larval growth arrest
EXT: mean difference in nematode size relative to plate controls ([12]; 1 µM): 1.127
EXT: mean difference in nematode size relative to plate controls ([12]; 5 µM): 1.268
EXT: mean difference in nematode size relative to plate controls ([12]; 10 µM): 1.264
EXT: mean difference in nematode size relative to plate controls ([12]; 25 µM): 1.322
EXT: mean difference in nematode size relative to plate controls ([12]; 50 µM): 1.038
EXT: mean difference in nematode size relative to plate controls ([12]; 75 µM): 0.8579
EXT: mean difference in nematode size relative to plate controls ([12]; 100 µM): 0.6913
effect on larval growth (in words) ([12]; 0.5–100μM): inhibited
minimal effective concentration [12]: 0.5 µM

CCC(C)c1cc([N+](=O)[O-])cc([N+](=O)[O-])c1O (stereo not shown) [Dinoseb]
IC50 (hNSC): 22.3 µM
EC50 (HepG2 cells [1]): 27.6 µM
IC50 (HepG2 cells [2]; [13]): 32.6 µM
IC50 (HepG2 cells [2]; [14]): 36.8 µM
EC50 [3]: 2.63 ± 1.78 µM
EC50 [4]: 0.76 ± 0.13 µM
Potential Mechanism [5]: Uncoupler at low concentrations (0.032-0.16 µM), and Uncoupler + inhibitor at high concentrations (0.8-100 µM)
I-ADP, % of control (O2 consumption rate) ([5]; 0.0064 µM): 89 (38.7) % of control
I-sub, % of control (O2 consumption rate) ([5]; 0.0064 µM): 118 (15.5) % of control
II-ADP, % of control (O2 consumption rate) ([5]; 0.0064 µM): 98 (66.3) % of control
II-sub, % of control (O2 consumption rate) ([5]; 0.0064 µM): 122 (25.5) % of control
I-ADP, % of control (O2 consumption rate) ([5]; 0.032 µM): 97 (42.2) % of control
I-sub, % of control (O2 consumption rate) ([5]; 0.032 µM): 131 (17.2) % of control
II-ADP, % of control (O2 consumption rate) ([5]; 0.032 µM): 92 (62.6) % of control
II-sub, % of control (O2 consumption rate) ([5]; 0.032 µM): 137 (28.6) % of control
I-ADP, % of control (O2 consumption rate) ([5]; 0.16 µM): 106 (46.2) % of control
I-sub, % of control (O2 consumption rate) ([5]; 0.16 µM): 181 (23.7) % of control
II-ADP, % of control (O2 consumption rate) ([5]; 0.16 µM): 98 (66.1) % of control
II-sub, % of control (O2 consumption rate) ([5]; 0.16 µM): 199 (41.5) % of control
I-ADP, % of control (O2 consumption rate) ([5]; 0.8 µM): 138 (59.9) % of control
I-sub, % of control (O2 consumption rate) ([5]; 0.8 µM): 423 (55.4) % of control
II-ADP, % of control (O2 consumption rate) ([5]; 0.8 µM): 59 (40.0) % of control
II-sub, % of control (O2 consumption rate) ([5]; 0.8 µM): 193 (40.3) % of control
I-ADP, % of control (O2 consumption rate) ([5]; 4 µM): 111 (48.1) % of control
I-sub, % of control (O2 consumption rate) ([5]; 4 µM): 347 (45.5) % of control
II-ADP, % of control (O2 consumption rate) ([5]; 4 µM): 28 (19.1) % of control
II-sub, % of control (O2 consumption rate) ([5]; 4 µM): 96 (20.0) % of control
I-ADP, % of control (O2 consumption rate) ([5]; 20 µM): 70 (30.6) % of control
I-sub, % of control (O2 consumption rate) ([5]; 20 µM): 242 (31.7) % of control
II-ADP, % of control (O2 consumption rate) ([5]; 20 µM): 18 (12.1) % of control
II-sub, % of control (O2 consumption rate) ([5]; 20 µM): 64 (13.3) % of control
I-ADP, % of control (O2 consumption rate) ([5]; 100 µM): 13 (6.5) % of control
I-sub, % of control (O2 consumption rate) ([5]; 100 µM): 33 (7.1) % of control
II-ADP, % of control (O2 consumption rate) ([5]; 100 µM): 12 (6.9) % of control
II-sub, % of control (O2 consumption rate) ([5]; 100 µM): 22 (7.8) % of control
Parkin recruitment [6]: Active
Rat hepatocytes (efficacy) (MMP) (rat primary hepatocytes [7]): 4.50±0.81 ( −130±39.0 ) %
IC50 (HepG2 cells [9]; [15]): 16.5 µM
IC50 (HepG2 cells [9]; [16]): 12.4 µM
LUM: mean difference in luminescence (ATP content) relative to plate controls ([10]; 0.5 µM): 0.1603
LUM: mean difference in luminescence (ATP content) relative to plate controls ([10]; 1 µM): 0.2694
LUM: mean difference in luminescence (ATP content) relative to plate controls ([10]; 5 µM): 0.2298
LUM: mean difference in luminescence (ATP content) relative to plate controls ([10]; 10 µM): 0.4579
LUM: mean difference in luminescence (ATP content) relative to plate controls ([10]; 25 µM): 0.5745
LUM: mean difference in luminescence (ATP content) relative to plate controls ([10]; 50 µM): 0.9424
LUM: mean difference in luminescence (ATP content) relative to plate controls ([10]; 75 µM): 1.122
LUM: mean difference in luminescence (ATP content) relative to plate controls ([10]; 100 µM): 1.3353
minimal effective concentration [10]: 50 µM
IC50 (rat primary hepatocytes [11]; [17]): 4.5 µM
EXT: mean difference in nematode size relative to plate controls ([12]; 0.5 µM): -0.01247
EXT: mean difference in nematode size relative to plate controls ([12]; 1 µM): -0.02122
EXT: mean difference in nematode size relative to plate controls ([12]; 5 µM): -0.00308
EXT: mean difference in nematode size relative to plate controls ([12]; 10 µM): 0.1196
EXT: mean difference in nematode size relative to plate controls ([12]; 25 µM): 0.1256
EXT: mean difference in nematode size relative to plate controls ([12]; 50 µM): 0.4169
EXT: mean difference in nematode size relative to plate controls ([12]; 75 µM): 0.7162
EXT: mean difference in nematode size relative to plate controls ([12]; 100 µM): 0.9301
minimal effective concentration [12]: 50 µM
